From patent US11492331B2, “Redox substrates for leukocyte esterase” (THE BOARD OF REGENTS OF THE UNIVERSITY OF TEXAS SYSTEM, priority 2017, dated 2022)
Values after ≈ are worked out from the molar mass of the structure shown. Where a name gives a salt, the structure may show the parent alone.

Assays:
leukocyte esterase (LE) [1] = experiment: Kinetics of reaction with LE by ICECEA (Michaelis-Menten); assay type: biochemical, human; details: 6.0 nM LE; for Km / kcat: 1-40 μM compound, PBS pH 7.40, 21° C.; for kcat Km^−1: PBS pH 7.40, Table 2
Method: FIG. 2. Michaelis-Menten plots for 6.0 nM LE and 1-40 μM compound: (a) I, (b) II, and (c) III, in PBS (pH 7.40). The solid lines represent the best fit to the experimental points based on the nonlinear regression.
The properties of compounds I-III as LE substrates were further investigated by determining their kinetics of reaction with LE (reaction 1). The initial rate of reaction 1 was measured by ICECEA at a constant LE concentration (cLE=6.0 nM; MW=29 kDa) and under the condition of cLE<<ccompound I-III(ccompound I-III=1-40 μM). The assays were conducted within a linear range of calibration plot for HQ at a GC electrode. One unit (U) of LE activity was defined as the amount of enzyme that catalyzed the hydrolysis of 1.0 μmole of a compound I-III per minute in a PBS solution at room temperature (21° C.). The LE activity (U L^−1) was calculated from the equation
[formula] where AS is an assay slope equal to the slope of rising I-t segment and CS is a calibration slope calculated from the I-t steps of ICECEA traces similar to those shown in FIG. 1. […] The analysis of such plots using the Michaelis-Menten kinetics yielded the Michaelis constants Km and turnover numbers kcat, which are shown in Table 1.

[2] = Solubility in water by UV-visible spectrophotometry; assay type: physicochemical; details: thermodynamic from solid, room temperature (21° C.), A270
Method: Solubility. The solubility of compounds I-III was determined by UV-visible spectrophotometry. The compounds were dissolved in water at room temperature (21° C.) to make a series of solutions with increasing concentration. The solutions were stirred continuously and their spectra were recorded until steady-state equilibrium was reached. Below the solubility limit, the steady-state background-corrected absorbance of solution at 270 nm (A270) was directly proportional to the compound concentration as expected by the Beer-Lambert law. Above the solubility limit, the absorbance steadily levelled off. The low- and high-concentration regions of plots A270 vs. compound concentration were linearized and extrapolated to a crossing point, which was taken as the solubility of compound.

[3] = system: leukocyte esterase (LE) of white blood cell (WBC) suspensions; experiment: Electrochemical LE assay (ICECEA) of human leukocyte suspensions; assay type: biochemical; details: for Average activity of single WBC: 100 μM substrate, pH 7.40 PBS, 0.40 V, from slopes of FIG. 3
Method: FIG. 3. Dependence of LE activity on the white blood cell (WBC) count in leukocyte suspensions determined by using ICECEA and compound: (a) I, (b) II, and (c) III. Assay solution, 100 μM substrate I, II, or III in a pH 7.40 PBS solution. Concentration of HQ calibration spikes, 0.54 μM. Dilution factor, 100×. Potential, 0.40 V.
Finally, the compounds I-III were tested in the development of electrochemical LE assay using the ICECEA. The assay was optimized with respect to the detection potential, sample dilution factor, and solution composition (pH, concentration). Such assay was used to determine the esterolytic activity of a series of human leukocyte suspensions. […] Accordingly, the average esterolytic activity of single WBC calculated using the slopes of plots in FIG. 3 was the highest when determined using a compound III (Table 2).
Preparation of Leukocyte Suspensions. The original suspension of leukocytes was diluted 10 times with a PBS solution that contained 10 vol. % DMSO and left for 30 min on a shaker table at 60 rpm to lyse the leukocytes chemically. Such a suspension preserved a constant esterolytic activity for at least 5 days when stored in a refrigerator at 4° C. It was used as a solution C (vide infra) for the ICECEA.

leukocyte esterase (LE) [4] = experiment: ICECEA test of recognition of compounds by LE as substrates (release of hydroquinone); assay type: biochemical, human; details: 60 μg mL^−1 compound, 86.7 μg L^−1 LE protein, pH 7.40 PBS, 0.40 V
Method: FIGS. 1A-B. (A) ICECEA I-t trace recorded at 0.40 V in a stirred pH 7.40 assay solution containing a tested compound. Each current step is due to the addition of hydroquinone calibrating aliquot to a solution. […] Otherwise, this segment was flat. (B) ICECEA current-time (I-t) traces recorded at a GC electrode in a stirred assay solution of compound (a) I, (b) II, (c) III. Trace # is for a precursor 1 to compounds I-III (Scheme 2). Arrows indicate the addition of 50 μL aliquots of hydroquinone (HQ) and leukocyte esterase (LE) to generate 0.54 μM HQ and 86.7 μg L^−1 LE protein in a solution. Assay solution, pH 7.40 PBS solution containing 60 μg mL^−1 of compound I-III or precursor 1. Traces were overlaid and shortened to show only the linear portion of ascending I-t segments. Potential, 0.40 V.
The initial electrochemical tests were performed to assess a degree of the recognition of compounds I-III by LE as its substrates. […]
The ICECEA was conducted by using phosphate buffer saline (PBS) solutions (pH 7.40, 154 mM NaCl) that contained either a tested compound, HQ, or LE. The current flowing through the GC electrode was measured while spiking 5.00 mL of a stirred assay solution of tested compound with triplicate aliquots of HQ solution and an aliquot of LE solution (FIG. 1). […]

COC(=O)c1cncc(S(=O)(=O)N[C@@H](C)C(=O)Oc2ccc(OC(=O)[C@H](C)NS(=O)(=O)c3cncc(C(=O)OC)c3)cc2)c1 [Compound III, methyl 5-{[(2S)-1-(4-{[(2S)-2-[5-(methoxycarbonyl)pyridine-3-sulfonamido]propanoyl]oxy}phenoxy)-1-oxopropan-2-yl]sulfamoyl}pyridine-3-carboxylate]
Km (leukocyte esterase (LE) [1]): 11 µM
kcat (leukocyte esterase (LE) [1]): 6.4 s⁻¹
kcat Km^−1 (leukocyte esterase (LE) [1]): 580000 M⁻¹ s⁻¹
solubility [2]: 4 mg/mL (≈ 6150 µM)
Average activity of single WBC [3]: 4.5 nU
detection limit of LE assay ([3]; human leukocyte suspensions, ICECEA): 20 WBC μL^−1

COc1ccc(S(=O)(=O)N[C@@H](C)C(=O)Oc2ccc(OC(=O)[C@H](C)NS(=O)(=O)c3ccc(OC)nc3)cc2)cn1 [Compound II, 4-((((6-methoxypyridin-3-yl)sulfonyl)-L-alanyl)oxy)phenyl ((6-methoxypyridin-3-yl)sulfonyl)-L-alaninate]
Km (leukocyte esterase (LE) [1]): 14 µM
kcat (leukocyte esterase (LE) [1]): 5.3 s⁻¹
kcat Km^−1 (leukocyte esterase (LE) [1]): 380000 M⁻¹ s⁻¹
solubility [2]: 0.5 mg/mL (≈ 841 µM)
Average activity of single WBC [3]: 1.5 nU

C[C@H](NS(=O)(=O)c1cccnc1)C(=O)Oc1ccc(OC(=O)[C@H](C)NS(=O)(=O)c2cccnc2)cc1 [Compound I, 4-(((pyridin-3-ylsulfonyl)-L-alanyl)oxy)phenyl (pyridin-3-ylsulfonyl)-L-alaninate]
Km (leukocyte esterase (LE) [1]): 12 µM
kcat (leukocyte esterase (LE) [1]): 3.2 s⁻¹
kcat Km^−1 (leukocyte esterase (LE) [1]): 270000 M⁻¹ s⁻¹
solubility [2]: 0.05 mg/mL (≈ 93.5 µM)
Average activity of single WBC [3]: 0.8 nU

C[C@H](N)C(=O)Oc1ccc(OC(=O)[C@H](C)N)cc1 [precursor 1, 1,4-phenylene (2S,2′S)-bis(2-aminopropanoate)-bis hydrochloride]
recognition by LE as substrate (rising I-t segment after LE addition) (leukocyte esterase (LE) [4]): no rising I-t segment
